Laboratory results from patent US8138170B2, “Immunosuppressive Ningalin compounds” (Memorial Sloan-Kettering Cancer Center, priority 2004, dated 2012).
Values joined by “and” are separate entries in the source; they are usually repeats but may differ in a detail not shown here. Equal entries are not always repeated.

Experiments:
[1] = test system: C57BL/6 heart allografts; experiment: Heterotopic heart transplantation in mice; format: in vivo, Balb/c mice
Protocol: (§1) Heterotopic heart transplantation was performed in rats and mice. In brief, heart transplantation was performed by previously described modified method. Hearts harvested from donors were perfused with chilled saline and immediately transplanted to recipients under full anesthesia. Suture 10-0 in rats and 12-0 in mice (Ethicon; Somerville, N.J.) was used to perform anastomosis of aorta to aorta and pulmonary artery to vena cava. Heartbeat was evaluated daily and the day of complete cessation was considered rejection. Animals that died within three days after transplantation were excluded from the analysis (less than 5%).
Mice were also transplanted with heart allografts. In particular, untreated Balb/c (H-2^d) recipients rejected C57BL/6 (H-2^b) heart allografts at a MST of 7.8±0.84 days (n=5). Treatment with 40 mg/kg N5, QDx7, extended heart allograft survival to 13.33±2.52 days, which increased life span 71% (n=3; p<0.03).
Mice heart allografts were treated with 20 mg/kg of N3, QDx7, i.p. In particular, untreated Balb/c (H-2^d) recipients rejected C57BL/6 ([…]) heart allografts at a MST of […] days (n=5). Treatment with 20 mg/kg of N3 (i.e., one-half of dose of N5) extended heart allograft survival to 18.75±3.86 days (n=4; p<0.0005), an increase in lifespan of 140%.

[2] = Cytotoxicity measured by cell proliferation inhibition; format: cell-based
[3] = test system: LEW kidney allografts; experiment: Orthotopic kidney transplantation in rats; format: in vivo, ACI rats
Protocol: Orthotopic kidney transplantation was performed in rats. In particular, the left kidney of donor was perfused through the aorta with heparinized saline (4° C.) and then harvested after the renal artery, renal vein, and ureter were cut off. End-to-end anastomosis of donor and recipient renal arteries and veins were performed using 10-0 nylon suture (Ethicon; Somerville, N.J.). The recipients' native kidneys were removed on the day of transplantation. Animals that died within three days after transplantation were excluded from the analysis (less than 5%).
The effect of N5 (administered in DMSO, 20 mg/kg, i.p. QDx7) on kidney allograft survival was examined. Although untreated ACI recipients acutely rejected LEW kidney allografts at 8.8±0.75 days, a 7-day i.p. daily treatment extended survivals to 26.50±2.12 days, which increased lifespan 200% (n=2; p<0.03).

[4] = test system: human lymphocytes; experiment: Inhibition of PHA-stimulated lymphocyte proliferation ([3H]thymidine incorporation); format: cell-based; conditions: PHA-stimulated human lymphocyte proliferation; read-out: Immunosuppressive Effect (IC50 in μM) [B]
Source text: Phytohemagglutinin (phytostigma or “PHA”) induces proliferation of human lymphocytes.

[5] = test system: Lewis (LEW) heart allografts; experiment: Heterotopic heart transplantation in rats; format: in vivo, Rat ACI recipients
Protocol: as §1
Rat ACI (RT1*) recipients of Lewis (LEW; RT1^1) heart allografts were untreated or were treated for 7 days by daily (QDx7) i.p. injections with 20 mg/kg N5. Untreated recipients rejected heart allografts in a mean survival time (MST) of 8.40±0.55 (n=5).

[6] = test system: carrageenan-induced paw edema; experiment: Carrageenan-induced paw edema; format: in vivo, B6D2F1 mice; conditions: for Pedis Area: individual mice 1-4; for Pedis Area, Mean: mean of 4 mice
Protocol: Carrageene (1%, 30 μl) was injected i.m. into the pedis of B6D2F1 mice (4 mice/group) to induced edemic inflammation at 0 hours. N3, N5 (i.p. injection) or oral administration of aspirin 500 mg/kg, or topical application of hydrocortisone cream (1%) or Lidex cream (0.05%) to the pedis skins were given at −1, 6, 12 and 24 hours. The control mice received dimethylsulfoxide (the vehicle of ningalins). The pedis areas (in mm^2) were measured at 0, 3, 6, 12, 24, 36 and 48 hours.

## COc1ccc(CCn2c(C(=O)N(C)C)c(-c3ccc(OC)c(OC)c3)c3c4cc(OC)c(OC)cc4oc(=O)c32)cc1OC [Ningalin N5, 1-(3,4-Dimethoxy-phenyl)-3-[2-(3,4-dimethoxy-phenyl)-ethyl]-7,8-dimethoxy-4-oxo-3,4-dihydro-5-oxa-3-aza-cyclopenta[α]naphthalene-2-carboxylic acid dimethylamide]
[1]; B6 heart to Balb/c, N5 40 mg/kg QDx7, 40 mg/kg
  MST ± SD days (heart allograft survival): 13.33±2.52 days and 13.35 ± 2.52 days
[1]; heart allograft, N5 40 mg/kg QDx7, vs untreated
  increased life span: 71%
[1]; heart, N5 40 mg/kg, 40 mg/kg
  Survival days (individual animals): 11 days and 13 days and 16 days
[2]
  IC50: 17.1 ± 4.6 µM
[3]; ACI recipients of LEW kidney, N5 in DMSO 20 mg/kg i.p. QDx7
  MST ± SD days (kidney allograft survival): 26.50±2.12 days
[3]; kidney allograft, N5 20 mg/kg i.p. QDx7, vs untreated
  increased life span: 200%
[3]; kidney, N5 20 mg/kg, 20 mg/kg
  Survival days (individual animals): 26 days and 28 days
[4]
  IC50: 0.17 ± 0.01 µM
[5]; ACI recipients of LEW heart, N5 20 mg/kg i.p. QDx7, 20 mg/kg
  MST ± SD days (heart allograft survival): 18.67±2.52 days and 18.67 ± 2.5 days
[5]; heart allograft, N5 20 mg/kg i.p. QDx7, vs untreated
  increased life span: 122%
[5]; heart, N5 20 mg/kg, 20 mg/kg
  Survival days (individual animals): 18 days and 19 days and 21 days
[6]; 0 hr, aspirin 500 mg/kg oral, N3 100 mg/kg i.p., N5 50 mg/kg i.p., hydrocortisone cream 1%, Lidex cream 0.05% topical, given at −1, 6, 12, 24 hours
  Pedis Area: 100 mm^2
[6]; 0 hr, doses as E35
  Pedis Area, Mean: 100 mm^2
[6]; 3 hr, doses as E35
  Pedis Area: 137.1 mm^2 and 139.2 mm^2 and 143.9 mm^2 and 132 mm^2
  Pedis Area, Mean: 138.1 mm^2
[6]; 6 hr, doses as E35
  Pedis Area: 138.1 mm^2 and 144.3 mm^2 and 146.9 mm^2 and 145.4 mm^2
  Pedis Area, Mean: 143.7 mm^2
[6]; 12 hr, doses as E35
  Pedis Area: 125.7 mm^2 and 124.7 mm^2 and 140.8 mm^2 and 141.2 mm^2
  Pedis Area, Mean: 133.1 mm^2
[6]; 24 hr, doses as E35
  Pedis Area: 125.7 mm^2 and 161.6 mm^2 and 128.6 mm^2 and 142.3 mm^2
  Pedis Area, Mean: 129.6 mm^2
[6]; 36 hr, doses as E35
  Pedis Area: 120 mm^2 and 118.6 mm^2 and 127.6 mm^2 and 142.3 mm^2
  Pedis Area, Mean: 127.1 mm^2
[6]; 48 hr, doses as E35
  Pedis Area: 120 mm^2 and 117.5 mm^2 and 130.6 mm^2 and 142.3 mm^2
  Pedis Area, Mean: 127.6 mm^2
[6]; N5 50 mg/kg i.p., N3 100 mg/kg i.p., all drugs: at 12-48 hours
  anti-inflammatory effect (FIG. 3): produced an anti-inflammatory effect
